# Publication PMC2758911 (Clinical cancer research : an official journal of the …, 2009)
# Tests used:
# QT interval = conditions: cited from earlier work
# [1] = tested on: relapsed/refractory multiple myeloma patients
# [2] = Vorinostat serum pharmacokinetics, day 4 of cycle 1; type: in vivo, human; conditions: for Tmax / half-life / AUC(0-inf) / Cmax: human, po
# [3] = tested on: relapsed and refractory myeloma patients; conditions: cited from earlier work
# [4] = single patient with grade 3 event, baseline QTc 394 msec
# [5] = vorinostat 400 mg daily, ECG 3 hours after vorinostat
smiles,measurement,setting,value
Cc1[nH]c2ccccc2c1CCNCc1ccc(/C=C/C(=O)NO)cc1 [panobinostat],QTc prolongation in phase I and/or II studies,QT interval,have shown evidence of QTc prolongation
CC(C)C[C@H](NC(=O)[C@H](Cc1ccccc1)NC(=O)c1cnccn1)B(O)O [bortezomib],Bortezomib dose at the MTD of the combination,"[1]; days 1, 4, 8, 11 of 21-day cycle, with vorinostat 400 mg daily for 8 days",1.3 mg/m2
same,Patients in whom bortezomib was decreased from 1.3 mg/m2 to 1 mg/m2,"[1]; human, in vivo",8 patients
"O=C(CCCCCCC(=O)Nc1ccccc1)NO [vorinostat, suberoylanilide hydroxamic acid]",Patients who required a decrease in vorinostat dose for grade 3 diarrhea,[1]; in vivo,3 patients
same,Maximum tolerated dose (MTD) of vorinostat,"[1]; oral once daily for 8 days (days 4–11) every 21 days, with bortezomib 1.3 mg/m2 days 1, 4, 8, 11",400 mg
same,cQT after vorinostat,[1]; [4],633 ms
same,cQT at 24 hours,[1]; [4],389 ms
same,"Prolongation of QTc grade 1, patients",[1]; [5],7
same,"Prolongation of QTc grade 2, patients",[1]; [5],2
same,Cmax at 400 mg versus 500 mg,"[2]; Student t-test, p=0.35",not statistically different
same,Dose proportionality of vorinostat pharmacokinetics (AUC),[2]; doses 100–500 mg,the increase was greater than proportional
same,Serum Cmax versus dose,[2]; doses 100–500 mg,reached a plateau above 400 mg
same,Dose proportionality of vorinostat pharmacokinetics (AUC),"[2]; doses 100–500 mg, listed as Vorinostat",non-linear
same,Tmax,[2]; serum,0.5 to 6 h
same,half-life,[2]; serum,0.8 to 7.6 h
same,AUC(0-inf),"[2]; serum, 100 mg",760 µM·h
same,Cmax,"[2]; serum, 100 mg",310 µM
same,Tmax,"[2]; serum, 100 mg",1.3 h
same,half-life,"[2]; serum, 100 mg",1.3 h
same,AUC(0-inf),"[2]; serum, 200 mg",2030 µM·h
same,Cmax,"[2]; serum, 200 mg",650 µM
same,Tmax,"[2]; serum, 200 mg",1.3 h
same,AUC(0-inf),"[2]; serum, 400 mg",5130 µM·h
same,Cmax,"[2]; serum, 400 mg",1420 µM
same,AUC(0-inf),"[2]; serum, 500 mg",8100 µM·h
same,Cmax,"[2]; serum, 500 mg",1330 µM
same,Tmax,"[2]; serum, 500 mg",3.8 h
same,half-life,"[2]; serum, 500 mg",4.4 h
same,Slope of Cl/F (L/min) versus dose (mg),"[2]; linear regression, p=0.001, CL/F decreased with increasing dose",−0.014
same,"t1/2, mean","[2]; vorinostat 200 mg BID oral (n=3), serum, day 4 cycle 1, with bortezomib",2.4 h
same,Tolerability and disease stabilization,[3]; heavily pre-treated population,favorable tolerability and evidence of disease stabilization
same,Single-agent activity,[3]; relapsed and refractory myeloma patients,failed to establish significant single-agent activity
same,QTc prolongation in phase I and/or II studies,QT interval,have shown evidence of QTc prolongation
